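These data come from cells grown in 96-well plates and exposed to compound for 48 hours at five concentrations. The concentration for 50% growth inhibition is given as GI50. TGI is the concentration that stops growth completely.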
Tests used:
Experiment in all cases: DTP human tumour cell line panel, 48 h
786-0 renal = system: 786-0 renal
A498 renal = system: A498 renal
A549 NSCLC = system: A549 NSCLC
ACHN renal = system: ACHN renal
BT-549 breast = system: BT-549 breast
CAKI-1 renal = system: CAKI-1 renal
CCRF-CEM leukemia = system: CCRF-CEM leukemia
COLO 205 colon = system: COLO 205 colon
DU-145 prostate = system: DU-145 prostate
EKVX NSCLC = system: EKVX NSCLC
HCC-2998 colon = system: HCC-2998 colon
HCT-116 colon = system: HCT-116 colon
HCT-15 colon = system: HCT-15 colon
HL-60(TB) leukemia = system: HL-60(TB) leukemia
HOP-62 NSCLC = system: HOP-62 NSCLC
HOP-92 NSCLC = system: HOP-92 NSCLC
HS 578T breast = system: HS 578T breast
HT29 colon = system: HT29 colon
IGROV1 ovarian = system: IGROV1 ovarian
K-562 leukemia = system: K-562 leukemia
KM12 colon = system: KM12 colon
LOX IMVI melanoma = system: LOX IMVI melanoma
M14 melanoma = system: M14 melanoma
MALME-3M melanoma = system: MALME-3M melanoma
MCF7 breast = system: MCF7 breast
MDA-MB-231 breast = system: MDA-MB-231 breast
MDA-MB-435 = system: MDA-MB-435
MOLT-4 leukemia = system: MOLT-4 leukemia
NCI-H226 lung = system: NCI-H226 lung
NCI-H23 lung = system: NCI-H23 lung
NCI-H460 lung = system: NCI-H460 lung
NCI-H522 lung = system: NCI-H522 lung
NCI/ADR-RES ovarian = system: NCI/ADR-RES ovarian
OVCAR-3 ovarian = system: OVCAR-3 ovarian
OVCAR-4 ovarian = system: OVCAR-4 ovarian
OVCAR-5 ovarian = system: OVCAR-5 ovarian
OVCAR-8 ovarian = system: OVCAR-8 ovarian
PC-3 prostate = system: PC-3 prostate
RPMI-8226 leukemia = system: RPMI-8226 leukemia
RXF 393 renal = system: RXF 393 renal
SF-268 CNS = system: SF-268 CNS
SF-295 CNS = system: SF-295 CNS
SF-539 CNS = system: SF-539 CNS
SK-MEL-2 melanoma = system: SK-MEL-2 melanoma
SK-MEL-28 melanoma = system: SK-MEL-28 melanoma
SK-MEL-5 melanoma = system: SK-MEL-5 melanoma
SK-OV-3 ovarian = system: SK-OV-3 ovarian
SN12C renal = system: SN12C renal
SNB-19 CNS = system: SNB-19 CNS
SNB-75 CNS = system: SNB-75 CNS
SR leukemia = system: SR leukemia
SW-620 colon = system: SW-620 colon
T-47D breast = system: T-47D breast
TK-10 renal = system: TK-10 renal
U251 CNS = system: U251 CNS
UACC-257 melanoma = system: UACC-257 melanoma
UACC-62 melanoma = system: UACC-62 melanoma
UO-31 renal = system: UO-31 renal
MDA-N = system: MDA-N

## CC1=C(CNO)C2=C(C)C3(CC3)[C@@](C)(O)C(=O)C2=C1
786-0 renal
  GI50: 2.53 µM
  TGI: 6.88 µM
A498 renal
  GI50: 1.6 µM
  TGI: 3.28 µM
A549 NSCLC
  GI50: 1.17 µM
  TGI: 17.6 µM
ACHN renal
  GI50: 2.25 µM
  TGI: 7.6 µM
BT-549 breast
  GI50: 1.24 µM
  TGI: 3.6 µM
CAKI-1 renal
  GI50: 1.66 µM
  TGI: 7.07 µM
CCRF-CEM leukemia
  GI50: 6.6 µM
  TGI: 60.6 µM
COLO 205 colon
  GI50: 1.09 µM
  TGI: 3.83 µM
DU-145 prostate
  GI50: 0.375 µM
  TGI: 5.5 µM
EKVX NSCLC
  GI50: 2.22 µM
  TGI: 5.98 µM
HCC-2998 colon
  GI50: 1.5 µM
  TGI: 3.76 µM
HCT-116 colon
  GI50: 1.85 µM
  TGI: 5.21 µM
HCT-15 colon
  GI50: 1.71 µM
  TGI: 4.99 µM
HL-60(TB) leukemia
  GI50: 2.77 µM
  TGI: 30.7 µM
HOP-62 NSCLC
  GI50: 0.61 µM
  TGI: 4.57 µM
HOP-92 NSCLC
  GI50: 1.12 µM
  TGI: 4.62 µM
HS 578T breast
  GI50: 2.7 µM
  TGI: 9.18 µM
HT29 colon
  GI50: 2.34 µM
  TGI: 58.8 µM
IGROV1 ovarian
  GI50: 0.898 µM
  TGI: 7 µM
K-562 leukemia
  GI50: 11.9 µM
  TGI: > 100 µM
KM12 colon
  GI50: 3.72 µM
  TGI: 27.4 µM
LOX IMVI melanoma
  GI50: 3.44 µM
  TGI: 19 µM
M14 melanoma
  GI50: 1.92 µM
  TGI: 5.04 µM
MALME-3M melanoma
  GI50: 1.81 µM
  TGI: 3.71 µM
MCF7 breast
  GI50: 0.763 µM
  TGI: 6.73 µM
MDA-MB-231 breast
  GI50: 2.03 µM
  TGI: 7.14 µM
MDA-MB-435
  GI50: 11.4 µM
  TGI: 39 µM
MOLT-4 leukemia
  GI50: 3.72 µM
  TGI: > 100 µM
NCI-H226 lung
  GI50: 1.83 µM
  TGI: 4.79 µM
NCI-H23 lung
  GI50: 0.473 µM
  TGI: 2.72 µM
NCI-H460 lung
  GI50: 0.358 µM
  TGI: 3.87 µM
NCI-H522 lung
  GI50: 0.679 µM
  TGI: 5.25 µM
NCI/ADR-RES ovarian
  GI50: 2.32 µM
  TGI: 7.63 µM
OVCAR-3 ovarian
  GI50: 1.49 µM
  TGI: 6.26 µM
OVCAR-4 ovarian
  GI50: 2.1 µM
  TGI: 7.06 µM
OVCAR-5 ovarian
  GI50: 1.4 µM
  TGI: 17.4 µM
OVCAR-8 ovarian
  GI50: 2.28 µM
  TGI: 36 µM
PC-3 prostate
  GI50: 1.91 µM
  TGI: 19.6 µM
RPMI-8226 leukemia
  GI50: 21.1 µM
  TGI: 72.9 µM
RXF 393 renal
  GI50: 0.726 µM
  TGI: 2.41 µM
SF-268 CNS
  GI50: 0.766 µM
  TGI: 9.89 µM
SF-295 CNS
  GI50: 0.982 µM
  TGI: 4.42 µM
SF-539 CNS
  GI50: 1.64 µM
  TGI: 5.03 µM
SK-MEL-2 melanoma
  GI50: 1.98 µM
  TGI: 4.91 µM
SK-MEL-28 melanoma
  GI50: 2.37 µM
  TGI: 6.05 µM
SK-MEL-5 melanoma
  GI50: 1.68 µM
  TGI: 3.22 µM
SK-OV-3 ovarian
  GI50: 1.13 µM
  TGI: 5.22 µM
SN12C renal
  GI50: 2.77 µM
  TGI: > 100 µM
SNB-19 CNS
  GI50: 1.81 µM
  TGI: 25.5 µM
SNB-75 CNS
  GI50: 1.38 µM
  TGI: 2.86 µM
SR leukemia
  GI50: 4.49 µM
  TGI: > 100 µM
SW-620 colon
  GI50: 4.54 µM
  TGI: > 100 µM
T-47D breast
  GI50: 1.21 µM
  TGI: 8.47 µM
TK-10 renal
  GI50: 3.24 µM
  TGI: 8.4 µM
U251 CNS
  GI50: 2.39 µM
  TGI: > 100 µM
UACC-257 melanoma
  GI50: 2.78 µM
  TGI: 7.64 µM
UACC-62 melanoma
  GI50: 1.8 µM
  TGI: 3.73 µM
UO-31 renal
  GI50: 1.83 µM
  TGI: 5.87 µM

## C=CCN1C(=O)CC(=O)N(NC2=NNC3(C(=O)N2)c2ccccc2-c2ccccc23)C1=S
786-0 renal
  TGI: > 100 µM
A498 renal
  TGI: > 100 µM
A549 NSCLC
  TGI: > 100 µM
ACHN renal
  TGI: > 100 µM
BT-549 breast
  TGI: > 100 µM
CAKI-1 renal
  TGI: > 100 µM
CCRF-CEM leukemia
  TGI: > 100 µM
COLO 205 colon
  TGI: 45 µM
DU-145 prostate
  TGI: > 100 µM
EKVX NSCLC
  TGI: > 100 µM
HCC-2998 colon
  TGI: > 100 µM
HCT-116 colon
  TGI: > 100 µM
HCT-15 colon
  TGI: > 100 µM
HL-60(TB) leukemia
  TGI: 66.2 µM
HOP-62 NSCLC
  TGI: > 100 µM
HOP-92 NSCLC
  TGI: 61.8 µM
HS 578T breast
  TGI: 66.1 µM
HT29 colon
  TGI: > 100 µM
IGROV1 ovarian
  TGI: > 100 µM
K-562 leukemia
  TGI: > 100 µM
LOX IMVI melanoma
  TGI: > 100 µM
M14 melanoma
  TGI: > 100 µM
MALME-3M melanoma
  TGI: > 100 µM
MCF7 breast
  TGI: > 100 µM
MDA-MB-231 breast
  TGI: > 100 µM
MDA-MB-435
  TGI: > 100 µM
MDA-N
  TGI: > 100 µM
NCI-H226 lung
  TGI: 82.5 µM
NCI-H23 lung
  TGI: > 100 µM
NCI-H460 lung
  TGI: > 100 µM
NCI-H522 lung
  TGI: 96.3 µM
NCI/ADR-RES ovarian
  TGI: > 100 µM
OVCAR-3 ovarian
  TGI: > 100 µM
OVCAR-4 ovarian
  TGI: > 100 µM
OVCAR-5 ovarian
  TGI: > 100 µM
OVCAR-8 ovarian
  TGI: > 100 µM
PC-3 prostate
  TGI: > 100 µM
RXF 393 renal
  TGI: > 100 µM
SF-268 CNS
  TGI: > 100 µM
SF-295 CNS
  TGI: > 100 µM
SF-539 CNS
  TGI: > 100 µM
SK-MEL-2 melanoma
  TGI: 74.5 µM
SK-MEL-28 melanoma
  TGI: > 100 µM
SK-MEL-5 melanoma
  TGI: > 100 µM
SK-OV-3 ovarian
  TGI: > 100 µM
SN12C renal
  TGI: > 100 µM
SNB-19 CNS
  TGI: > 100 µM
SNB-75 CNS
  TGI: > 100 µM
SR leukemia
  TGI: 61.1 µM
SW-620 colon
  TGI: > 100 µM
TK-10 renal
  TGI: > 100 µM
U251 CNS
  TGI: > 100 µM
UACC-257 melanoma
  TGI: > 100 µM
UACC-62 melanoma
  TGI: > 100 µM
UO-31 renal
  TGI: > 100 µM
